The text below walks through data of patent US20070042963A1, “Therapeutic peptides” (Medarex, Inc., priority 2000, published 2007).

The subject of experiment [1] is anti-IFN-R antibody (34F10). In words: Effect of peptide on binding of non-neutralizing anti-IFN-R antibody 34F10 to the IFN-R. As to conditions: epitope distant from the ligand binding site.
The next experiment concerns IFN-R on Daudi cells. In words: Inhibition of Type 1-IFN binding to the IFN-R on Daudi cells: 125I-IFN-α2 binding in presence of Mab 64G12 with or without peptide. As to conditions: Mab 64G12 2 μg, 125I-labeled human IFN-α2 0.13 nM, 2 hours at 4° C. The method, then: Inhibition of Type 1-IFN Binding to the IFN-R on Daudi Cells.
Cultures of exponentially growing Daudi cells (2 million cells/0.2 ml RPMI 1640 medium with 10% fetal calf serum) were treated with: Mab 64G12 (2 μg), alone or together with: (i) a soluble affinity purified recombinant polypeptide corresponding to amino acids 1 to 427 of the extracellular domain region sequence of the IFNAR1 chain as reported by Uze et al., 1990, Cell, 60, 224-234 (prepared as described in Benoit et al., 1993, J. Immunol., 150, 707-716 and Published International Application WO 92/18626 and purified first on a NI-NTA agarose column (Qiagen) and subsequently eluted with 300 mM imidazole. The eluted partially purified soluble IFNAR1 was then applied to a 5.0 ml 64G12 Mab sepharose column and eluted with 0.1 M glycine, pH 2.8. The eluted IFNAR1 was pure as determined by SDS-PAGE under denaturing conditions) or (ii) the peptide of SEQ ID no. 2 (the 11 mer). This was followed by the addition of ^125I-labeled human IFN-α2 (iodination as described by Mogensen et al., 1981, Int. J. Cancer, 28, 575-582; 90000 cpm, 0.13 nM) and incubation for 2 hours at 4° C. The cells were then washed 3 times with culture medium containing 1% fetal calf serum and the cell pellet counted in a gamma counter.

Another experiment concerns Mab 64G12. The experiment is described as follows: ELISA binding of peptides to Mab 64G12. Further details: species or system mouse. As to conditions: biotin-SGSG-peptide on streptavidin plates, peptide 20 μM, antibody 1 μg/ml. On the procedure: Binding of Peptides to Mab 64G12
The 11 mer (SEQ ID no. 2) and a number of modified versions of that polypeptide derived by deletion or substitution were tested for ability to bind Mab 64G12 by ELISA. […]. The peptides were biotinylated at the N-terminus with a spacer sequence SGSG between the peptide and the biotin, i.e. biotin-SGSG-peptide.
ELISA screening for ability to bind Mab 64G12 was carried out using Nunc Maxisorb plates coated with Streptavidin 5 μg/ml, 100 μl/well overnight at 37° C. The plates were then blocked with 200 μl/well of PBS containing 0.1% Tween 20, 1% sodium caseinate (CAST) for 1 hour at 20° C. Peptides were dissolved by adding 50 μl of DMSO and 0.6 ml of 40% acetonitrile to each tube. For peptide coating, 100 μl of PBS, 0.1% Tween 20 (PT) were added to each well, followed by 2 μl of each peptide solution (final peptide concentration 20 μM). After 30 mins, the monoclonal antibody was added at 1 μg/ml in PT for 1 hour at 20° C. The plates were washed and 100 μl/well of a 1/2000 dilution of horseradish peroxidase labeled goat anti-mouse IgG (H+L) in CAST plus 1% sheep serum (CASS) was added for 1 hour at 20° C. After washing, 100 μl of ABTS substrate was distributed to all wells. Absorbance was measured after 10 and 45 mins incubation on a plate reader using dual wavelength ([…]) to correct for background.
Background: An ELISA detects its analyte on a solid surface through an enzyme-linked reagent.

Regarding “NFSSLKLNVYE (Modified peptide from Hu IFNAR1 receptor) [Peptide 12]”, the “ability of antibody 34F10 to bind to the IFN-R” value in experiment [1] was “does not affect”. The “IFN binding to the IFN-R in the presence of Mab 64G12” value with IFN-R on Daudi cells is listed as “restored IFN-binding to a high degree”. Moreover, the “binding to Mab 64G12 by ELISA” value with Mab 64G12 is “specifically bind”. “KLNVYE (Modified peptide from Hu IFNAR1 receptor) [Peptide 7]”: the “binding to Mab 64G12 by ELISA” value in the experiment with Mab 64G12 was “only background binding”. On the same count and under the same terms, the value for “FSSLKLNVY (Modified peptide from Hu IFNAR1 receptor) [9 mer]” was “specifically bind”.
